One series addresses T1, MTM (Homo sapiens, UniProt Q13496).
T1 sequence (Q13496 1-603): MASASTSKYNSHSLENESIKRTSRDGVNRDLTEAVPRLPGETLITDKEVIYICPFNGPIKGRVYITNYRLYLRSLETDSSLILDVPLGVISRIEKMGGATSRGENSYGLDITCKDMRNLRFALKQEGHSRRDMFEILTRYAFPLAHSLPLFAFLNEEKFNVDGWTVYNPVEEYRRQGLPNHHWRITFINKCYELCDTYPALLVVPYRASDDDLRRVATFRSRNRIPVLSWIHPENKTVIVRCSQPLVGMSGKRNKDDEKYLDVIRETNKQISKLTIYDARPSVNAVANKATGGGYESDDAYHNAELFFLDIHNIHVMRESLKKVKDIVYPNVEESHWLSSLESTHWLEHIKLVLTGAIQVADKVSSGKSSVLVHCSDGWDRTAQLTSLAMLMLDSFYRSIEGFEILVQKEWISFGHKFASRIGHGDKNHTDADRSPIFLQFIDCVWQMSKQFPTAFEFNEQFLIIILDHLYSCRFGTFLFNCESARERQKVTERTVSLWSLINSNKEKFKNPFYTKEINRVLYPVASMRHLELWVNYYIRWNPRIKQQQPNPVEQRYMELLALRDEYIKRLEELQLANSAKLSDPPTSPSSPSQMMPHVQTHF
Description: MTM IC50 (inositol phosphatase inhibition). It counts as biochemical. The following applies: Compound(+V).

The target in a further series is T2, PTEN (Mus musculus, UniProt O08586).
T2 construct: endogenous in cells; host or cells: NIH3T3
T2 sequence (O08586 whole entry): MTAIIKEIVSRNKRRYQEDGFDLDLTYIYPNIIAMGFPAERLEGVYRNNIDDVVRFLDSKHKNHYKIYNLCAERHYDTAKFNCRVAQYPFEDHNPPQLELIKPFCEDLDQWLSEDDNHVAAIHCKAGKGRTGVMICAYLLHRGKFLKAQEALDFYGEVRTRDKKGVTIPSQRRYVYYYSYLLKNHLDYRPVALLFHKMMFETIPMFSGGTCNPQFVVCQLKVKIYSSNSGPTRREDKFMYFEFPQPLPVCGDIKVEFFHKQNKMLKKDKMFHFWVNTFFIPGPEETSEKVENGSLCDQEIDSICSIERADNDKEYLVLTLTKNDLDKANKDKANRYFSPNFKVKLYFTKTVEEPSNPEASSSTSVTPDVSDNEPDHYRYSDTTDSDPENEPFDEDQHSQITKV
Description: PKB assay: dose dependence of PTEN inhibition in insulin-stimulated NIH3T3 cells (pSer473 Western blot). It counts as cell-based. As for the experimental part:
(§1) NIH3T3 cells (passage 5-20) were grown in 10% NCS D-MEM (GIBCO BRL) in 6-well plates at 37 C and 5% CO2. Starvation of the cells was carried out over 72 h in D-MEM containing 0.5% NCS. Prior use medium was changed to 0% D-MEM. UM-UC-3 cells which is a PTEN^− bladder tumour cell line (NO 195, No 196) were grown in 10% MEM (GIBCO BRL), starved with 0.5% MEM also for three days and finally incubated with serum free MEM.
UM-UC-3 cells were treated in exactly the same manner. Cell samples were analysed on Western Blots with PKB antibodies.
(§2) All cell lysate samples were loaded on 10% SDS-PAGE and transferred to PVDF membranes for PKB analysis and nitrocellulose for phospho tyrosine detection. For PKB Western Blots membranes were blocked for 1 h with 5% milk powder in TBST followed by an incubation with anti Mass PKB antibody (1:1000) or anti phospho-PKB (Ser473) antibody (1:1000) in TBST for 2 h. Finally, membranes were exposed to a horseradish peroxidase-conjugated secondary antiserum (BIORAD) (1:1000) in 5% milk powder solution for 1 h. The Western Blots were developed with ECL™ solution (Amersham). In order to detect phosphorylated tyrosine residues nitrocellulose membranes were blocked for 1 h with 2.5% milk powder, first incubated with a specific anti phosphotyrosine antibody (4G10) (1:3000) for 1 h, and finally with horseradish peroxidase-conjugated secondary anti mouse antiserum. All PKB and Phospho-Tyrosine experiments were accomplished in three independent experiments and all membranes were re-probed using a specific tubulin antibody (1:1000). Density analysis of bands took place using the public domain NIH Image V1.62 program (developed at the U.S. National Institutes of Health and available on the Internet at http://rsb.info.nih.gov/nih-image/).

Series [1] has as its system PKB phosphorylation (pSer473) in NIH3T3 cells. As to the kind of experiment: PKB assay: activation of insulin signalling pathway (insulin mimetic property), NIH3T3. In kind it is cell-based. Conditions: NIH3T3, 1 μM, 15 min, no insulin. As for the experimental part:
as §1
Cells were washed once with PBS and lysed using 80 μl SDS-PAGE buffer (250 mM Tris pH 6.8, 20% glycerol, 4% SDS, 0.01% bromphenol blue, 50 mM mercaptoethanol). Samples were boiled for 15 min and stored at −20 C until analysis on Western Blots as described in the last paragraph.
as §2

Series [2] concerns phosphorylation of tyrosine residues in NIH3T3 cells. As to the kind of experiment: Phosphotyrosine assay with NIH3T3 cells. It counts as cell-based. Conditions: 15 min. As to the method: NIH3T3 cells were grown and starved as described earlier. After 72 h starvation cells were incubated for 15 min with 10% NCS, 50, 10 and […] insulin (Sigma), 10, 1, 0.1 and 0.01 μM bpV(pic) and bpV(phen), respectively. Cell lysates were prepared as described above and all samples were analysed on Western Blots using an anti phospho-tyrosine antibody (Upstate).
as §2

For another series, the system named is NIH3T3 cells. Description: Phalloidin staining (actin re-arrangement, morphology). In kind it is cell-based. The following applies: 0.1 μM, 6 h and 24 h. As to the method:
In order to monitor morphological changes NIH3T3 cells were grown on 8-well chamber slides and incubated with concentrations of bpV(pic) and bpV(phen) between 0.1 and 10 μM for 6 h and 24 h, respectively. Fibroblasts were fixed with 4% para-formaldehyde (PFA), permeabilised with 0.2% Triton and blocked with 10% NCS (newborn calf serum). To stain actin filaments cells were incubated with TRITC-phalloidin (Sigma) (1:1000) for 1 h. Finally, nuclei were DAPI (Sigma) stained and mounted. Morphological analyses were assessed on a microscope using filters for TRITC and DAPI and pictures were captured using a camera.

Series [3] relates to PKB phosphorylation (Ser473) in NIH3T3 cells. As to the kind of experiment: PKB assay in the presence of PI3K inhibitor Ly294002 and mTOR inhibitor rapamycin. It counts as cell-based. As for the experimental part: In order to study the influence of PI3K and mTOR on the bpV-dependent insulin mimetic feature we treated NIH3T3 cells with 10 μM LY294002 (Promega) and 50 nM rapamycin (Calbiochem) for 20 min and 30 min, respectively, followed by an incubation with 10 μM or 1 μM bpv(pic) for 15 min. Cell lysates were analysed on PKB Western Blots.
as §2

Series [4] relates to PKB phosphorylation (pSer473) in NIH3T3 cells. Description: Ly294002 dose dependence with and without bpV(pic). In kind it is cell-based. As to the method: In order to find out whether bpV(pic) has an influence on Ly294002-dependent PKB inhibition we accomplished a dose response experiment applying concentrations from 0.01 up to 100 μM Ly294002 to two sets of quiescent fibroblasts and incubated for 20 min. One batch of cells were then further treated with 200 nM bpV(pic) (5 min) and all cells were finally stimulated with 10 μg/ml insulin for 15 min. Cell lysates were collected as described earlier. Calculations and graph were performed using GraphPad Prism.
as §2

A word on the IC50: it is the concentration needed to halve the response being measured. Take “potassium bisperoxo (piconlinate) oxovanadate [bpV(pic)]”: the IC50 against MTM turned out to be 239 ± 4.2 nM; on PTEN (NIH3T3, 5 min compound then 0.5 μg/ml insulin 15 min, read-out: IC50 (in vivo PTEN inhibition, densitometry of pSer473 PKB)), 48 nM. In addition, the “increase of PKB phosphorylation in comparison with the control” value at PTEN (20 nM compound, control 0.5 μg/ml insulin) is “about 20%”. In addition, the “phosphorylated PKB signal” value in series [1] is listed as “weak signal”. The tyrosine phosphorylation result is “not distinguishable to the negative control” in series [2] (0.01 μM) and “highest degree of tyrosine phosphorylation” in series [2] (10 μM). Besides, in the series on NIH3T3 cells, the “cellular morphology (actin staining)” value is recorded as “remained unchanged”. The “phosphorylation of Ser473 of PKB” value in series [3] (1 μM bpV(pic) after pre-incubation with 50 nM rapamycin) is reported as “provoked phosphorylated Ser473”; in series [3] (1 μM bpV(pic) alone), “no signal was visible”; in series [3] (10 μM bpV(pic) after pre-incubation with 10 μM Ly294002), “reduced phosphorylation rate”; in series [3] (10 μM bpV(pic) alone) it was “high degree of phosphorylation”. Further, the “effect on Ly294002 induced PKB inhibition” value in series [4] (200 nM bpV(pic), Ly294002 0.01 to 100 μM) is given as “can abrogate Ly294002 induced PKB inhibition”. The “PKB phosphorylation at 5 μM Ly294002” value in series [4] (in the presence of 200 nM bpV(pic)) is “phosphorylation still occurs”.
